Measurements published in patent publication US12486274B2, “Substituted pyrazolo-pyrimidines and uses thereof” (Verge Analytics, Inc., priority 2020, dated 2025).

Molecular target: Full length human recombinant PIKFYVE (Homo sapiens (Human), UniProt Q9Y2I7)
Experiment: Inhibition of PIKfyve (microfluidic electrophoresis kinase assay)
Type: biochemical
Settings: 2 nM enzyme, PI3P/PS substrate, 3 h at room temperature, 12 concentrations
Procedure: Full length human recombinant PIKFYVE expressed in baculovirus expression system as N-terminal GST-fusion protein (265 kDa) was obtained from Carna Biosciences (Kobe, Japan). The kinase substrate was prepared by mixing and sonicating fluorescently-labeled phosphatidylinositol 3-phosphate (PI3P) with phospho-L-serine (PS) at a 1:10 ratio in 50 mM HEPES buffer pH7.5.
The kinase reactions were assembled in 384-well plates (Greiner) in a total volume of […] as follows. Kinase protein was pre-diluted in an assay buffer comprising 25 mM HEPES, pH 7.5, 1 mM DTT, 2.5 mM MgCl2, and 2.5 mM MnCl2, and 0.005% Triton X-100, and dispensed into a 384-well plate (10 μL per well). Test compounds were serially pre-diluted in DMSO and added to the protein samples by acoustic dispensing (Labcyte Echo). The concentration of DMSO was equalized to 1% in all samples. All test compounds were tested at 12 concentrations. Apilimod was used as a reference compound and was tested in identical manner in each assay plate. Control samples (0%-inhibition, in the absence of inhibitor, DMSO only) and 100%-inhibition (in the absence of enzyme) were assembled in replicates of four and were used to calculate %-inhibition in the presence of compounds. The reactions were initiated by addition of 10 μL of 2× PI3P/PS substrate supplemented with ATP. The final concentration of enzyme was 2 nM, the final concentration of ATP was 10 mM, and the final concentration of PI3P/PS substrate was 1 μM (PI3P). The kinase reactions were allowed to proceed for 3 h at room temperature. Following incubation, the reactions were quenched by addition of […] of termination buffer (100 mM HEPES, pH 7.5, 0.01% Triton X-100, 20 mM EDTA). Terminated plates were analyzed on a microfluidic electrophoresis instrument (Caliper LabChip® 3000, Caliper Life Sciences/Perkin Elmer). The change in the relative fluorescence intensity of the PI (3) P substrate and PI (3,5) P product peaks was measured. The activity in each test sample was determined as the product to sum ratio (PSR): P/(S+P), where P is the peak height of the product, and S is the peak height of the substrate. Percent inhibition (Pinh) was determined using the following equation: Pinh=(PSR0% inh−PSRcompound)/(PSR0% inh−PSR100% inh)*100 in which PSRcompound is the product/sum ratio in the presence of compound, PSR0% inh is the product/sum ratio in the absence of compound, and the PSR100% inh is the product/sum ratio in the absence of the enzyme.

Full length human recombinant PIKFYVE, sequence (Q9Y2I7 whole entry): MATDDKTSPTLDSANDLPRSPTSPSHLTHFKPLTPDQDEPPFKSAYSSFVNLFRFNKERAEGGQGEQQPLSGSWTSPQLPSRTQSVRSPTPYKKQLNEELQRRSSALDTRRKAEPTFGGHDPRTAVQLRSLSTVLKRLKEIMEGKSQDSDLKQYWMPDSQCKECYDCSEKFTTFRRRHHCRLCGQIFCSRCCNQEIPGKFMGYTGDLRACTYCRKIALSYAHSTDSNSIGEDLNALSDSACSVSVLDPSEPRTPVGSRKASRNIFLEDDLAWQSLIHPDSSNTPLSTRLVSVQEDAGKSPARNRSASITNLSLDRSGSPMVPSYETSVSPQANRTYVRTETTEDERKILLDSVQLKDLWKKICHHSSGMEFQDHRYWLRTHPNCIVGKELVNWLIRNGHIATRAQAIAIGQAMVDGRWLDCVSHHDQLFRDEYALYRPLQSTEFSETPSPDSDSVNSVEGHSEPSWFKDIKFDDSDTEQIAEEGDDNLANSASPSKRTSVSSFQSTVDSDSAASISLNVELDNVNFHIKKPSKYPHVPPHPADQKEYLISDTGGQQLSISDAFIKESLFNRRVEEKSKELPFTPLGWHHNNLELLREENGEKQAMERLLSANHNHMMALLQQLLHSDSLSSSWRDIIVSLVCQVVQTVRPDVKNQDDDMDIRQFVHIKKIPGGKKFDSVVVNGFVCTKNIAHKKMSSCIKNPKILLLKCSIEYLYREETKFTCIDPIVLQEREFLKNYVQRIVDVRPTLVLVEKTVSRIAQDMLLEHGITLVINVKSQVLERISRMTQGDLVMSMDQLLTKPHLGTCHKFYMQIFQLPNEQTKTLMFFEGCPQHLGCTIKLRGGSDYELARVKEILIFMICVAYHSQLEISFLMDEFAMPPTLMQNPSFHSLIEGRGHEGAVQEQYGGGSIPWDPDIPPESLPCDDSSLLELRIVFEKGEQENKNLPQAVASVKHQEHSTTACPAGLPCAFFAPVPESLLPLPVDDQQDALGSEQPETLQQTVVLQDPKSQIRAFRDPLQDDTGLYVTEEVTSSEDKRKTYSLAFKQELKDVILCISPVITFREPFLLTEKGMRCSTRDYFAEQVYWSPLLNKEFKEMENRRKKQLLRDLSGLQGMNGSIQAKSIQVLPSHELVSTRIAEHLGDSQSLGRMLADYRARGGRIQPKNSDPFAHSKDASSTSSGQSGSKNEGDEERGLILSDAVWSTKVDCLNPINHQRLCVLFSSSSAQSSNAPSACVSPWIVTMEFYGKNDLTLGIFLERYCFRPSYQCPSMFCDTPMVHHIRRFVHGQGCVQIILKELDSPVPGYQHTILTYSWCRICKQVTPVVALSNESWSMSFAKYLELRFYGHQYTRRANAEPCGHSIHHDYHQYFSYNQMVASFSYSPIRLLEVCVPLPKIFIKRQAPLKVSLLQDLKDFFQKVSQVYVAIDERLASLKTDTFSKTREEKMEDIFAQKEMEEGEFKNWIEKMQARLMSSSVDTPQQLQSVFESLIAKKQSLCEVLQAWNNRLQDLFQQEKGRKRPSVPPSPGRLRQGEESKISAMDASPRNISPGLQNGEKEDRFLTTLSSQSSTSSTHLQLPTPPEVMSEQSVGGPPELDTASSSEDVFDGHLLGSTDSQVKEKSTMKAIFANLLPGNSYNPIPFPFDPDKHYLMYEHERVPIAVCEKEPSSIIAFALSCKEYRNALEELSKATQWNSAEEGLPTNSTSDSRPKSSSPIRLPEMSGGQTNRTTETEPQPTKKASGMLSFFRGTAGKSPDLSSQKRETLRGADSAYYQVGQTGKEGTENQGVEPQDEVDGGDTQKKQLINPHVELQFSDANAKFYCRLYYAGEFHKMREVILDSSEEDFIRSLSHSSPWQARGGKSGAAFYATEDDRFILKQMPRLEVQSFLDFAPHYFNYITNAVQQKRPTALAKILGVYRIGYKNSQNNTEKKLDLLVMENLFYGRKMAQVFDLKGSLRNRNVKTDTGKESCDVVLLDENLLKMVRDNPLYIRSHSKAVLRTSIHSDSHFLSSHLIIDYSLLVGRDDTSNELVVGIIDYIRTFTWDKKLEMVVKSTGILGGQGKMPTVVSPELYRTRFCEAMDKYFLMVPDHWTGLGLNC

Row | SMILES | IC50 [nM]
1 | Cc1cccc(-c2ccn(-c3cc(N4CCOCC4)n4nc(C(=O)N[C@H]5CCN(C)C5)cc4n3)n2)c1 [Compound 48, N-[(3S)-1-methylpyrrolidin-3-yl]-7-morpholino-5-[3-(m-tolyl)pyrazol-1-yl]pyrazolo[1,5-a]pyrimidine-2-carboxamide] | 41.3
2 | Cc1cccc(-c2ccn(-c3cc(N4CCOCC4)n4nc(C(=O)N[C@@H]5CCN(C)C5)cc4n3)n2)c1 [Compound 49, N-[(3R)-1-methylpyrrolidin-3-yl]-7-morpholino-5-[3-(m-tolyl)pyrazol-1-yl]pyrazolo[1,5-a]pyrimidine-2-carboxamide] | 112
3 | Cc1cccc(-c2ccn(-c3cc(N4CCOCC4)n4nc(C(=O)N[C@H]5CCOC5)cc4n3)n2)c1 [Compound 50, 7-morpholino-5-[3-(m-tolyl)pyrazol-1-yl]-N-[(3S)-tetrahydrofuran-3-yl]pyrazolo[1,5-a]pyrimidine-2-carboxamide] | 18.4
4 | Cc1cccc(-c2ccn(-c3cc(N4CCOCC4)n4nc(C(=O)N[C@@H]5CCOC5)cc4n3)n2)c1 [Compound 51, 7-morpholino-5-[3-(m-tolyl)pyrazol-1-yl]-N-[(3R)-tetrahydrofuran-3-yl]pyrazolo[1,5-a]pyrimidine-2-carboxamide] | 64.7
5 | Cc1cccc(-c2ccn(-c3cc(N4CCOCC4)n4nc(C(=O)N[C@@H]5CCCN(C)C5)cc4n3)n2)c1 [Compound 52, N-[(3R)-1-methyl-3-piperidyl]-7-morpholino-5-[3-(m-tolyl)pyrazol-1-yl]pyrazolo[1,5-a]pyrimidine-2-carboxamide] | 28.4
6 | Cc1cccc(-c2ccn(-c3cc(N4CCOCC4)n4nc(C(=O)N[C@H]5CCCN(C)C5)cc4n3)n2)c1 [Compound 53, N-[(3S)-1-methyl-3-piperidyl]-7-morpholino-5-[3-(m-tolyl)pyrazol-1-yl]pyrazolo[1,5-a]pyrimidine-2-carboxamide] | 26.8
7 | Cc1cccc(-c2ccn(-c3cc(N4CCOCC4)n4nc(C(=O)NC5CCN(C)CC5)cc4n3)n2)c1 [Compound 54, N-(1-methyl-4-piperidyl)-7-morpholino-5-[3-(m-tolyl)pyrazol-1-yl]pyrazolo[1,5-a]pyrimidine-2-carboxamide] | 126
8 | Cc1cccc(-c2cnn(-c3cc(N4CCOCC4)n4nc(C(=O)NC5CCN(C)CC5)cc4n3)c2)c1 [Compound 55, N-(1-methyl-4-piperidyl)-7-morpholino-5-[4-(m-tolyl)pyrazol-1-yl]pyrazolo[1,5-a]pyrimidine-2-carboxamide] | 6420
9 | Cc1cccc(-c2cnn(-c3cc(N4CCOCC4)n4nc(C(=O)NC5CCOCC5)cc4n3)c2)c1 [Compound 56, 7-morpholino-5-[4-(m-tolyl)pyrazol-1-yl]-N-tetrahydropyran-4-yl-pyrazolo[1,5-a]pyrimidine-2-carboxamide] | 3420
10 | Cc1cccc(-c2cnn(-c3cc(N4CCOCC4)n4nc(-c5ccncn5)cc4n3)c2)c1 [Compound 57, 4-[5-[4-(m-tolyl)pyrazol-1-yl]-2-pyrimidin-4-yl-pyrazolo[1,5-a]pyrimidin-7-yl]morpholine] | 3750
11 | Cc1cccc(-c2cnn(-c3cc(N4CCOCC4)n4nc(-c5cncnc5)cc4n3)c2)c1 [Compound 58, 4-[5-[4-(m-tolyl)pyrazol-1-yl]-2-pyrimidin-5-yl-pyrazolo[1,5-a]pyrimidin-7-yl]morpholine] | > 20000
12 | Cc1cccc(-c2cnn(-c3cc(N4CCOCC4)n4nc(-c5cccnc5N)cc4n3)c2)c1 [Compound 59, 3-[7-morpholino-5-[4-(m-tolyl)pyrazol-1-yl]pyrazolo[1,5-a]pyrimidin-2-yl]pyridin-2-amine] | > 20000
13 | Cc1cccc(-c2cnn(-c3cc(N4CCOCC4)n4nc(-c5cnc(N)nc5)cc4n3)c2)c1 [Compound 60, 5-[7-morpholino-5-[4-(m-tolyl)pyrazol-1-yl]pyrazolo[1,5-a]pyrimidin-2-yl]pyrimidin-2-amine] | 6120
14 | Cc1cccc(-c2ccn(-c3cc(N4CCOCC4)n4nc(-c5ccn(C)n5)cc4n3)n2)c1 [Compound 61, 4-[2-(1-methylpyrazol-3-yl)-5-[3-(m-tolyl)pyrazol-1-yl]pyrazolo[1,5-a]pyrimidin-7-yl]morpholine] | 2.4
15 | Cc1cccc(-c2ccn(-c3cc(N4CCOCC4)n4nc(-c5cc[nH]n5)cc4n3)n2)c1 [Compound 62, 4-[5-[3-(m-tolyl)pyrazol-1-yl]-2-(1H-pyrazol-3-yl)pyrazolo[1,5-a]pyrimidin-7-yl]morpholine] | 15.8
16 | c1ccc(-c2ccn(-c3cc(N4CCOCC4)n4nc(-c5ncccn5)cc4n3)n2)cc1 [Compound 63, 4-[5-(3-phenylpyrazol-1-yl)-2-pyrimidin-2-yl-pyrazolo[1,5-a]pyrimidin-7-yl]morpholine] | 693
17 | c1ccc(-c2ccn(-c3cc(N4CCOCC4)n4nc(-c5cccnc5)cc4n3)n2)cc1 [Compound 64, 4-[5-(3-phenylpyrazol-1-yl)-2-(3-pyridyl)pyrazolo[1,5-a]pyrimidin-7-yl]morpholine] | 68.1
18 | Cn1ccc(-c2cc3nc(-n4ccc(-c5ccccc5)n4)cc(N4CCOCC4)n3n2)n1 [Compound 66, 4-[2-(1-methylpyrazol-3-yl)-5-(3-phenylpyrazol-1-yl)pyrazolo[1,5-a]pyrimidin-7-yl]morpholine] | 104
19 | c1ccc(-c2ccn(-c3cc(N4CCOCC4)n4nc(-c5cc[nH]n5)cc4n3)n2)cc1 [Compound 67, 4-[5-(3-phenylpyrazol-1-yl)-2-(1H-pyrazol-3-yl)pyrazolo[1,5-a]pyrimidin-7-yl]morpholine] | 261
20 | c1ccc(-c2ccn(-c3cc(N4CCOCC4)n4nc(-c5ccncn5)cc4n3)n2)cc1 [Compound 68, 4-[5-(3-phenylpyrazol-1-yl)-2-pyrimidin-4-yl-pyrazolo[1,5-a]pyrimidin-7-yl]morpholine] | 1660
21 | c1ccc(-c2ccn(-c3cc(N4CCOCC4)n4nc(-c5cncnc5)cc4n3)n2)cc1 [Compound 69, 4-[5-(3-phenylpyrazol-1-yl)-2-pyrimidin-5-yl-pyrazolo[1,5-a]pyrimidin-7-yl]morpholine] | 752
22 | Nc1ncccc1-c1cc2nc(-n3ccc(-c4ccccc4)n3)cc(N3CCOCC3)n2n1 [Compound 70, 3-[7-morpholino-5-(3-phenylpyrazol-1-yl)pyrazolo[1,5-a]pyrimidin-2-yl]pyridin-2-amine] | 378
23 | Nc1ncc(-c2cc3nc(-n4ccc(-c5ccccc5)n4)cc(N4CCOCC4)n3n2)cn1 [Compound 71, 5-[7-morpholino-5-(3-phenylpyrazol-1-yl)pyrazolo[1,5-a]pyrimidin-2-yl]pyrimidin-2-amine] | 143
24 | c1ccc(-c2ccn(-c3cc(N4CCOCC4)n4nc(-c5ccccn5)cc4n3)n2)cc1 [Compound 72, 4-[5-(3-phenylpyrazol-1-yl)-2-(2-pyridyl)pyrazolo[1,5-a]pyrimidin-7-yl]morpholine] | 281
25 | CC(C)NC(=O)c1cc2nc(-n3ccc(-c4ccccc4)n3)cc(N3CCOCC3)n2n1 [Compound 73, N-isopropyl-7-morpholino-5-(3-phenylpyrazol-1-yl)pyrazolo[1,5-a]pyrimidine-2-carboxamide] | 335
26 | C[C@@H](NC(=O)c1cc2nc(-n3ccc(-c4ccccc4)n3)cc(N3CCOCC3)n2n1)C1CC1 [Compound 74, N-[(1R)-1-cyclopropylethyl]-7-morpholino-5-(3-phenylpyrazol-1-yl)pyrazolo[1,5-a]pyrimidine-2-carboxamide] | 353
27 | C[C@H](NC(=O)c1cc2nc(-n3ccc(-c4ccccc4)n3)cc(N3CCOCC3)n2n1)C1CC1 [Compound 75, N-[(1S)-1-cyclopropylethyl]-7-morpholino-5-(3-phenylpyrazol-1-yl)pyrazolo[1,5-a]pyrimidine-2-carboxamide] | 334
28 | O=C(NCC1COC1)c1cc2nc(-n3ccc(-c4ccccc4)n3)cc(N3CCOCC3)n2n1 [Compound 76, 7-morpholino-N-(oxetan-3-ylmethyl)-5-(3-phenylpyrazol-1-yl)pyrazolo[1,5-a]pyrimidine-2-carboxamide] | 1590
29 | O=C(NC1CCCC1)c1cc2nc(-n3ccc(-c4ccccc4)n3)cc(N3CCOCC3)n2n1 [Compound 77, N-cyclopentyl-7-morpholino-5-(3-phenylpyrazol-1-yl)pyrazolo[1,5-a]pyrimidine-2-carboxamide] | 184
30 | c1ccc(-c2cnn(-c3cc(N4CCOCC4)n4nc(-c5ccccn5)cc4n3)c2)cc1 [Compound 78, 4-[5-(4-phenylpyrazol-1-yl)-2-(2-pyridyl)pyrazolo[1,5-a]pyrimidin-7-yl]morpholine] | 441
